Reference: article PMC7217877, “N-AS-triggered SPMs are direct regulators of microglia in a model of Alzheimer’s disease” (Nature Communications, 2020)
Where a chain is given by its changes, count along the chain named. Several values for one entry are separate records, joined by “and”; a condition that tells them apart may be missing. Equal entries are not always repeated.

How the values were obtained:
5×FAD mice = assay: ThioS Aβ plaque area and plaque morphometry (Supplementary Fig 8b,c); type: in vivo, mouse
Description: (§1) Thioflavin S (Sigma-Aldrich) staining was carried out according to previously described procedures. We used 6E10 (mouse, 1:100, Signet, SIG39300), anti-20G10 (mouse, 1:1000, provided by D. R. Howlett, GlaxoSmithKline, Harlow, Essex, UK) for Aβ42, anti-G30 (rabbit, 1:1000, provided by D. R. Howlett) for Aβ40, SMA (mouse, 1:400, Sigma-Aldrich, A2547), AT8 (mouse, 1:500, Thermo Fisher Scientific, MN1020), Caspase-3 (mouse, 1:200, Novus Biologicals, NB100-56708), ac-S565 (rabbit, 1:100), COX2 (mouse, 1:250, Thermo Fisher Scientific, 35-8200), Iba1 (rabbit, 1:500, Wako, 019-19941 and goat, Abcam, ab5076), NeuN (mouse, 1:500, Millipore, MAB177), GFAP (rabbit, 1:500, Dako, N1506 and chicken, 1:500, Abcam, ab4674), and Lamp1 (mouse, 1:200, Abcam, ab24170). The sections were analyzed with a laser-scanning confocal microscope (FV3000; Olympus) or with a BX51 microscope (Olympus). MetaMorph software (Molecular Devices) was used to quantification. Three-dimensional reconstruction of microglia was recorded and analyzed using IMARIS software (Bitplane)[11]. For the analysis of age-dependent microglial COX2^+ CX3CR1^+ cells in WT and APP/PS1 mice, COX2 (rabbit, 1:100, Abcam, ab15191) and CX3CR1 (mouse, 1:100, BioLegend, 149008) antibody were used and the images were acquired on Alexa 488 and APC Channel with performed using Operetta CLS and Analysis Software 4.5 (Perkin-Elmer).
Transgenic mouse lines over-expressing the hAPP695swe (APP) and presenilin-1M146V (PS1) mutations were originated from GlaxoSmithKline (Harlow, UK)[32] and maintained as described previously. We purchased 5×FAD mice from Jackson Labs (Stock number. 34840-JAX). Because APP/PS1 and 5xFAD mice show sex differences in disease progression, we used only male mice. To examine possible therapeutic effect of N-AS and aspirin in APP/PS1 mice, the N-AS (30 mg kg^−1, Sigma-Aldrich, 01912) was injected daily s.c. for 8 weeks to 7-months-old APP/PS1 mice until the age of 9 months, and aspirin (2 mg kg^−1, Sigma-Aldrich, A5376)[33] was administrated orally to 7-months-old APP/PS1 mice for 8 weeks. Also, to confirm possible therapeutic efficacy of N-AS in 5×FAD, the N-AS (30 mg kg^−1, Sigma-Aldrich, 01912) was injected daily s.c. for 4 weeks to 3-months-old 5×FAD mice until the age of 4 months. Block randomization method was used to allocate the animals to experimental groups. To eliminate the bias, we were blinded in experimental progress such as data collection and data analysis. Mice were housed at temperature of 22 °C and a 12 h day/12 h night cycle with free access to tap water and food pellets. All protocols were approved by the Kyungpook National University Institutional Animal Care and Use Committee.

COX2 T564A = target: T1, COX2 T564A (Homo sapiens, UniProt P35354, T564A); assay: filter binding assay of [14C] N-AS to COX2; conditions: 0.2 uM, replicates
T1 construct: His (N); made in house
T1 sequence (P35354 18-604 T564A): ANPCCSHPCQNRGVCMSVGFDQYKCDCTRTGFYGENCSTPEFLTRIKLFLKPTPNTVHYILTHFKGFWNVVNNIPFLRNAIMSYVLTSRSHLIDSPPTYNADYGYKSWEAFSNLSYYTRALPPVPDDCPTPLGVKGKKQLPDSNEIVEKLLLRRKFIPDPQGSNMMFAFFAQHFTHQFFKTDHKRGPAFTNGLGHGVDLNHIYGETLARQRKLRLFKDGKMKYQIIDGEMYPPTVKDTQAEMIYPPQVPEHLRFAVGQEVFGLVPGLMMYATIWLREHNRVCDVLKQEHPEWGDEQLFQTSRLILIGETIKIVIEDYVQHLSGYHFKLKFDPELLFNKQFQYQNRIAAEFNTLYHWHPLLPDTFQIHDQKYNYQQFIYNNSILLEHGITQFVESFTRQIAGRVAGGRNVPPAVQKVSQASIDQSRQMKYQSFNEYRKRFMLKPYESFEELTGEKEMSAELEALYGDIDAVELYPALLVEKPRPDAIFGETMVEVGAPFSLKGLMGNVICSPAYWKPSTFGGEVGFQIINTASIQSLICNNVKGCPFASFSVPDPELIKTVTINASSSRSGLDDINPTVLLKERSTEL

APP/PS1 mice = assay: tau hyperphosphorylation (AT8) quantification (Fig 6g); type: in vivo, mouse
Description: as §1, with “(Perkin-Elmer). […]” for “(Perkin-Elmer).”

[1] = solubility (stated in discussion); type: physicochemical
COX2 WT = target: T2, COX2 WT (Homo sapiens, UniProt P35354); assay: filter binding assay of [14C] N-AS to COX2; conditions: COX2 Control; 0.2 uM (20 pmol); replicates
T2 construct: His (N); made in house
T2 sequence (P35354 18-604): T1 sequence (P35354 18-604 T564A) with A547T

## CCCCCCCCCCCCC/C=C/[C@@H](O)[C@H](CO)NC(C)=O [N-AS, N-((2S,3R,E)-1,3-Dihydroxyoctadec-4-en-2-yl)acetamide]
5×FAD mice; 5xFAD + N-AS, sFig 8c
  Aβ plaques by size, <25mM: 92.2364 and 92.245 and 94.982 and 89.4908 and 95.585 and 93.6135
  Aβ plaques by size, >50mM: 5.395 and 4.6761 and 5.546 and 5.244 and 3.581 and 5.111
5×FAD mice; 5xFAD + N-AS, sFig 8c, in % (unit assumed)
  Aβ plaques by size, 25-50mM: 5.341 and 4.808 and 4.956 and 5.7255 and 3.9859 and 4.882
5×FAD mice; 5×FAD, N-AS 30 mg kg^-1 daily s.c. 4 weeks
  Aβ plaque deposit and Aβ plaque phagocytosis: similarly improved AD pathology of 5×FAD mice
COX2 T564A
  binding velocity (Vbinding): 0.196 nM/min and 0.240 nM/min and 0.096 nM/min
APP/PS1 mice; APP/PS1 + N-AS, individual animals
  tau hyperphosphorylation (AT8) quantification (Figure 6g): 0.1647 and 0.1634 and 0.2394 and 0.275 and 0.2281 and 0.1841
APP/PS1 mice; APP/PS1 treated with N-AS
  tau hyperphosphorylation: reduced
[1]
  solubility, in words: poor solubility
COX2 WT
  binding velocity (Vbinding): 0.350 nM/min and 0.395 nM/min and 0.289 nM/min
